Assay results as given in BindingDB's records for PubMed 37257213 (Birla Institute of Technology and Science Pilani).

Target: Trypanothione reductase (UniProt P39050)
Assay: Inhibition of Leishmania donovani Trypanothione reductase

Chain of Trypanothione reductase (P39050 whole entry): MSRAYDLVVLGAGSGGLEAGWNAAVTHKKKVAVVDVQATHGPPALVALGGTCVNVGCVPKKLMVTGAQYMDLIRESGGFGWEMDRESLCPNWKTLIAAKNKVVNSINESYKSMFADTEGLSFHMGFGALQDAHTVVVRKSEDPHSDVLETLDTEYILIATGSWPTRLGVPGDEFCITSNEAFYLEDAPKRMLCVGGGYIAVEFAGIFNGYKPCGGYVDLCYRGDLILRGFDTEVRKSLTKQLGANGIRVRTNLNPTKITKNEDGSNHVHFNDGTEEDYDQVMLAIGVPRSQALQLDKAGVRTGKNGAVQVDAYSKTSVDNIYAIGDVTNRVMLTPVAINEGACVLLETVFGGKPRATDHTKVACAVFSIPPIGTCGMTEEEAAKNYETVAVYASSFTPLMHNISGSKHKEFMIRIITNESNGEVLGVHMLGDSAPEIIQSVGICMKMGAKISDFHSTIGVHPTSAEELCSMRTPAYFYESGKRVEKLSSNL

IC50: 91 µM
SMILES: CN(C)c1ncnc2c1C1(CCCC1)Cc1ccccc1-2 [Name not given]
